The test system of one series is S. aureus strain USA300. As to the kind of experiment: MIC by broth microdilution (CLSI), strain USA300. The format is cell-based. Particulars: Staphylococcus aureus; USA300 (MRSA), Mueller–Hinton broth. Here is the method:
(§1) Community-acquired MRSA (CA-MRSA) strain USA300, its isogenic agr mutant,[17] the hospital-acquired MRSA (HA-MRSA) strain BH1CC,[18] the HA-MSSA strain BH48[19] and the MSSA strain SH1000[20] were cultured in Mueller–Hinton broth for susceptibility testing or in RPMI-1640 (Gibco) for biofilm formation. For the rat jugular vein catheter infection model, the S. aureus strain USA300 (LAC) lux[21] was used.
(§2) 5HE-C14-TMA and C14-TOA were synthesized as described previously[9] and C14-TTA as described in the Supplementary data available at JAC Online. Stock solutions of the compounds in DMSO at 10–50 mM were further diluted into tissue culture media or sodium chloride for the in vivo experiments. A DMSO solvent control was used in all in vitro experiments. The following antibiotics were used: vancomycin (Vancocin; Flynn Pharma Ltd., Republic of Ireland), daptomycin (Cubicin; Novartis, UK), gentamicin (Hospira, UK) and tigecycline (Tygacil; Pfizer Inc.). MICs were determined by broth microdilution in Mueller–Hinton broth, as recommended by the CLSI.

In a further series the test system is S. aureus strain BH48. As to the kind of experiment: MIC by broth microdilution (CLSI), strain BH48. The class given is cell-based. Particulars: Staphylococcus aureus; BH48 (MSSA), Mueller–Hinton broth. Here is the method:
as §1, §2

A further series is described as follows: Haemolysis assay. The format is cell-based. The following applies: red blood cells; human RBC; read-out: CC50 (haemolytic activity). Here is the method:
Human blood containing EDTA (1.6 g/L) was centrifuged at 1000 g for 5 min. Red blood cells (RBC) were washed twice with PBS, diluted 2-fold and incubated with compounds or Triton X100 (positive control) at 0.5% (v/v). A570 was determined to quantify haemolysis. IC50s were derived from the corresponding dose–response curves.

Series [1] concerns IL-8 and TNF-α release in human blood. The class given is cell-based. On the procedure: EDTA-treated human blood was incubated in microtitre wells containing either S. aureus USA300 biofilm, 5HE-C14-TMA (at 256 mg/L) only or biofilm with 5HE-C14-TMA (at 256 mg/L) and incubated for 2 h at 37 °C. Plasma samples were collected by centrifugation (1000 g) and assayed for human cytokines using a Bio-Plex 200 (Bio-Rad). A standard curve was employed to maximize sensitivity for samples containing low cytokine levels. At least three different donor blood samples (with three replicates for each) were used.

The test system of series [2] is S. aureus USA300lux biofilm. Briefly: Rat IVC (jugular vein catheter) biofilm infection model. The format is in vivo. The following applies: CLS 512 mg/L, 40 μL daily for 5 days. Here is the method:
Rats (male, Sprague–Dawley) were pre-implanted with jugular vein polyurethane catheters (13.5 cm long, outside diameter 1.1 mm, inside diameter 0.6 mm) (Charles River, UK). Daily flushing was performed with 150 μL sodium chloride [0.1% (w/v)] following introduction of 40 μL heparin (100 IU), sodium chloride 0.1% (w/v) within the lumen. IVC-biofilm infection was developed as previously reported.[24–26] Catheters were inoculated with 40 μL S. aureus USA300lux suspension at 1 × 10^4 cfu/mL ‘locked’ within the catheter for 1 day. Intravenous vancomycin (50 mg/kg) was administered twice daily at 12 h intervals to prevent systemic spread of infection. CLS consisting of 5HE-C14-TMA (40 μL) at 512 mg/L in sodium chloride 0.1% (w/v) was administered daily for 5 days upon development of infection. After 5 days of treatment, catheters were removed and luminescence imaged using a Perkin Elmer IVIS Spectrum instrument (exposure, 20 s; binning: 4, f1). Bacteria were harvested from the catheters by treatment with TrypLE^TM Express (Gibco) and washing prior to determining viable counts.

The test system of the next series is staphylococcal membrane. Details: method as in PMID 24592914. Particulars: binding to the staphylococcal membrane, single site model; cited from earlier work.
The mark [3] stands for this setting: 256 mg/L for 2 h, sub-bactericidal dose.

The structures appear in SMILES notation. Where “and” joins values, the source holds several entries; their conditions need not be identical. Identical values can stand only once. Entries after “also recorded” stand apart in the source; their conditions may differ.

On to `CCCCCCCCCCCCCC(=O)C1=C(O)N[C@@H](CCO)C1=O` [5HE-C14-TMA, 5-hydroxyethyl-3-tetradecanoyltetramic acid], for which the MIC against S. aureus strain USA300 is 6.25 µM and 2 µg/mL; in the series with S. aureus strain BH48, 6.25 µM and 2 µg/mL. Besides, in the series “Haemolysis assay”, the half-maximal cytotoxic concentration (CC50) was 246 µM and 87 µg/mL. In addition, the “IL-8 level in blood exposed to USA300 biofilm with compound” value in series [1] (setting [3]) is given as “substantial reductions”. Further, the “TNF-α level in blood exposed to USA300 biofilm with compound” value in series [1] (setting [3]) is listed as “substantial reductions”. Besides, the “Cytokine levels in whole human blood, agent only” value in series [1] (256 mg/L, 2 h, no biofilm) was “no increase in cytokine levels”. For the same compound, in series [1] (same dose (256 mg/L), agr mutant biofilm), the “IL-8 and TNF-α levels in response to USA300 agr mutant biofilm with compound” value was “no further effect”. Also, the “Catheter biofilm after CLS treatment” value in series [2] was “effectively eradicated; also recorded: highly effective in the eradication of MRSA biofilm”. Also, in the series on staphylococcal membrane, the Kd was 4 µM.
